How the values were obtained:
[1] = tested on: neutrophils; test: Neutrophil chemotaxis assay, C5a co-chemotactic activity of DBP; type: cell-based, human
Excerpt: Isolation of human neutrophils Neutrophils, serum, and plasma were isolated from the venous blood of healthy, medication-free, paid volunteers who gave informed consent. The Institutional Review Board of Stony Brook University approved this procedure. These procedures have been described in detail previously (Kew et al., 1995a).
Neutrophil chemotaxis assay Cell movement was quantitated using a 48 well microchemotaxis chamber (Neuroprobe, Cabin John, Md.) and 5.0 μm pore size cellulose nitrate filters (purchased from Neuroprobe) as previously described (Kew et al., 1995a). Cell suspensions and chemotactic factors were prepared and/or diluted in the chemotaxis assay buffer (Hank's balanced salt solution supplemented with 10 mM HEPES (pH 7.4) and 1% bovine serum albumin). Cell movement was quantitated microscopically by measuring the distance in microns (μm) that the leading front of cells had migrated into the filter according to the method described by Zigmond and Hirsch (1973). In each experiment, five fields per duplicate filter were measured at 400× magnification.

[2] = tested on: neutrophils; test: Quantitative binding of radioiodinated DBP to neutrophils; set-up: species or system human; conditions: DBP saturated with the ligand; 100 nM 125I-DBP, 37° C. 60 min
Description: Quantitative binding of radioiodinated DBP to neutrophils Purified DBP (200-400 μg) was iodinated using Na-^125I (Dupont-NEN, Wilmington, Del.) as previously described (DiMartino and Kew, 1999). Neutrophils (10^7 cells/sample) were incubated with 100 nM ^125I-DBP in Hank's balanced salt solution (HBSS) containing 0.1% bovine serum albumin (BSA) (assay buffer) in a total volume of 100 μl. Samples were incubated at 37° C. for 60 min after which cells were placed on ice and then washed twice with ice-cold assay buffer (1.0 ml each) and centrifuged for 7 min at 200× g at 2° C. The cell pellets were then counted for total radioactivity in a gamma counter. All samples were assayed in triplicate or quadruplicate.

[3] = tested on: Alkaline phosphatase activity on the plasma membrane of viable neutrophils; test: Neutrophil alkaline phosphatase assay (DiFMUP); type: cell-based, human; conditions: 5×10^6 cells pretreated with 10 nM 1,25(OH)2D3 or 10 μM SOV; untreated 11,107±1335 units
Description: Neutrophil alkaline phosphatase assay Alkaline phosphatase activity on the plasma membrane of viable neutrophils was measured using the fluorescent substrate 6,8-difluoro-4-methylumbelliferyl phosphate (DiFMUP) and the EnzChek Phosphatase Assay Kit (Molecular Probes, Eugene, Oreg.). Neutrophils (5×10^6 cells) were suspended in 50 μl of 0.1M sodium acetate (pH 5.0) and were immediately added to microtiter plates containing 50 μl of 0.2mM DiFMUP substrate and incubated for 5 min at 22° C. in the dark. A standard curve was generated using known amounts of the fluorescent compound 6,8-difluoro-7-hydroxy-4-methylcoumarin. Fluorescence was measured at 358 nm excitation and 455 nm emission using a SpectraMax M2 microtiter plate reader (Molecular Devices, Sunnydale, Calif.).

[4] = tested on: U937-C5aR cells; test: Chemotaxis assay, U937-C5aR cells; type: cell-based, human; conditions: Example 6
Description: Neutrophils (4×10^6/ml) or U937-C5aR cells (6×10^6/ml) in chemotaxis buffer were treated for 15 min at 22° C. with 20 μg/ml of anti-CD36, anti-CD47 or anti-gC1qR. Cells were then allowed to respond to either 2.5% complement-activated serum (ZAS) or 1 nM purified C5a for 120 min (FIG. 14A. U937-C5aR cells) or 25 min (Panel B. neutrophils) at 37° C. Numbers represent mean±SEM, n=4.
U937 cells were originally obtained from the American Type Culture Collection and transfected with either the human C5a receptor or the empty plasmid vector as detailed previously (16). U937 cells were cultured at 37° C., 5% CO2 in RPMI 1640 containing 10% FBS (HyClone) and […] active G418 (Invitrogen Life Technologies) and maintained at a density between 2×10^5 and 1.5×10^6/ml.
Serum and citrated plasma (1 ml each) were incubated for 1 h at 37° C. with 10 mg of zymosan. Particulate matter was removed by centrifugation (15,000× g) for 5 min at 4° C. using a microfuge. Samples were then aliquoted and frozen at −20° C.
Cell movement was quantitated using a 48-well microchemotaxis chamber (NeuroProbe) and 5.0-μm pore size cellulose nitrate filters (purchased from NeuroProbe) as previously described (13). Cell movement was quantitated microscopically by measuring the distance in micrometers that the leading front of cells had migrated into the filter according to the method described by Zigmond and Hirsch (17). In each experiment, five fields per duplicate filter were measured at ×400 magnification. The value of the background controls for random cell movement (cells responding to buffer) has been subtracted in all cases so that the data are presented as net movement in micrometers.

[5] = tested on: differentiated HL-60 cells; test: Chemotaxis assay, differentiated HL-60 cells responding to C5a, C5a plus DBP or ZAS; type: cell-based, Human; conditions: differentiated HL-60 cells; 100 pM C5a (FIG. 1: 25-200 pM) plus 50 nM of indicated DBP, 60 min at 37° C
Description: Cells (6×10^6/ml) were resuspended in chemotaxis buffer and treated either with chemotaxis buffer (control), 1 μM of peptide 1 (130-152), or 1 μM of peptide 2 (150-172) for 30 min at room temperature. The chemotactic response of differentiated HL-60 cells to 100 pM C5a alone, C5a plus 50 nM full-length natural DBP or 1% zymosan-activated serum (ZAS) was measured for 60 minutes at 37° C. Numbers represent net cell movement in 60 min, mean±SEM of 3 experiments.
(§1) Cells and cell culture: Human promyelocytic cell line HL-60 was obtained from ATCC (Rockville, Md.) and cultured in RPMI 1640 medium supplemented with 10% FBS. Differentiation of HL-60 cells was initiated with 250 μM Bt2cAMP for 48 hours.
Chemotaxis assay. Chemotaxis was performed as described previously (see Kew, R. R. et al., J. Leukoc. Biol. 58, 55-58 (1995)). In brief, 35 μl of C5a (0.01 to 1 nM) in the chemotaxis buffer (HBSS with 1% BSA, 10 mM HEPES) were placed in duplicate in the lower chamber of a 48-well chamber (Neuroprobe, Md.). The lower compartments were covered with a 5 μm pore cellulose nitrate filter and then 50 μl of the cell suspension (2.5×10^5/well) was pipetted into the upper compartments. The chemotactic chamber was incubated for 1 hour at 37° C. in a humidified incubator with 5% CO2. Following incubation, the filter was fixed, stained and mounted on a microscope slide. Cell movement was measured as the distance in microns that the leading front of the cells had migrated into the filter (see Zigmond, S. et al., J. Exp. Med. 137, 387 (1973)).

[6] = tested on: differentiated HL-60 cells; test: Ligand-induced calcium mobilization (Fluo-3 AM) in differentiated HL-60 cells; type: cell-based, Human; conditions: differentiated HL-60 cells incubated 30 min with 50 nM of indicated DBP, then C5a
Description: as §1
Ligand-induced calcium mobilization. Calcium mobilization studies were performed using the Fluo-3 AM probe as described previously (see Merritt, J. E. et al., Biochem. J. 269, 513-519 (1990)). Differentiated HL-60 cells (1×10^7 cells/ml) were resuspended in HBSS-1% BSA containing 2 μM Fluo-3 AM (Molecular Probes, Eugene, Oreg.) and incubated at 37° C. for 40 minutes. Cells incubated without the dye were used as a control to measure autofluorescence (Fmin). Following the dye uptake, cells were washed twice then suspended at 5×10^6 cells/ml in HBSS containing 1% BSA. Half of the cell suspension was treated with 50 nM DBP for 30 min at room temperature, the other half served as the untreated control. For each measurement, 400 μl of cell suspension (with or without DBP) was added to a cuvette and stimulated with various concentrations of purified C5a at room temperature (22-24° C.). Fluorescence was then measured immediately using a Perkin-Elmer LS-5 fluorometer at 505 nm excitation, 526 nm emission for Fluo-3 AM. Fmax was measured by treating labeled cells with 60 μM digitonin. Intracellular free calcium concentrations were calculated using the following formula: (Ca^2+)=Kd (F−Fmin)/(Fmax−F), where Kd=325 nM for Fluo-3 according to manufacturer (Molecular Probes).

[7] = tested on: U937-C5aR cells; test: C5a-induced intracellular calcium mobilization in U937-C5aR cells; type: cell-based, human; conditions: FIG. 11B, 12; 0.5 μM DBP peptide, 50 nM DBP, 0.1 nM C5a
Description: FIG. 11A and FIG. 11B show the effect of DBP on C5a-induced intracellular calcium mobilization in U937-C5aR cells. U937-C5aR cells (10^7 cells/ml) were resuspended in HBSS-1% BSA containing 2 μM Fluo-3 AM and incubated at 37° C. for 40 minutes. Cells incubated without the dye were used as a control to measure autofluorescence (Fmin). Following the dye uptake, cells were washed twice then suspended at 5×10^6 cells/ml in HBSS containing 1% BSA. For the pretreatment experiments, cells were incubated for 30 min at 22° C. with 50 nM DBP or 0.5 μM DBP peptide 1 (p1). For each measurement, 400 μl of cell suspension was added to a cuvette and stimulated with the indicated concentration of C5a (FIG. 11A) or 0.1 nM C5a (FIG. 11B). Fluorescence was then measured immediately using a Perkin-Elmer LS-5 fluorometer at 505 nm excitation, 526 nm emission for Fluo-3 AM. Fmax was measured by treating labeled cells with 60 μM digitonin. Intracellular free calcium concentrations were calculated using the following formula: (Ca^2+)=Kd (F−Fmin)/(Fmax−F), where Kd=325 nM for Fluo-3 according to manufacturer (Molecular Probes). Data are presented as mean±SEM (n=4-6) of the increase in intracellular calcium concentration.
U937-C5aR cells (10^7 cells/ml) were resuspended in HBSS-1% BSA containing 2 μM Fluo-3 AM and incubated at 37° C. for 40 minutes. Cells incubated without the dye were used as a control to measure autofluorescence (Fmin). Following the dye uptake, cells were washed twice then suspended at 5×10^6 cells/ml in HBSS containing 1% BSA. Cells were incubated for 30 min at 22° C. with either 50 nM DBP or 0.5 μM DBP peptide. For each measurement, 400 μl of cell suspension was added to a cuvette and stimulated with 0.1 nM purified C5a. Fluorescence was then measured immediately using a Perkin-Elmer LS-5 fluorometer at 505 nm excitation, 526 nm emission for Fluo-3 AM. Fmax was measured by treating labeled cells with 60 μM digitonin. Intracellular free calcium concentrations were calculated using the following formula: (Ca2+)=Kd (F−Fmin)/(Fmax−F), where Kd=325 nM for Fluo-3 according to manufacturer (Molecular Probes)

With `C=C1/C(=C\C=C2/CCC[C@]3(C)[C@@H]([C@H](C)CCCC(C)(C)O)CC[C@@H]23)C[C@@H](O)C[C@@H]1O` [1,25(OH)2D3, 1,25(OH)2 Vitamin D3] the “neutrophil chemotaxis to optimal concentrations of C5a, formyl peptide, LTB4 or CXCL8 (IL-8)” value ([1]; 10 nM bound to DBP) was “does not alter neutrophil chemotaxis”, the “effect on co-chemotactic activity of DBP (neutrophil chemotaxis toward C5a)” value ([1]; ligand bound to DBP, 1,25(OH)2D3 100 nM) was “completely eliminated the co-chemotactic effect” and the “effect on binding of 125I-DBP to neutrophils” value [2] was “did not alter DBP binding to neutrophils”. For the same molecule, the “neutrophil AP activity” value [3] was “not significantly altered”.
For `[O-][Cl+2]([O-])O` [chlorate, sodium chlorate], the “U937-C5aR chemotaxis to C-activated plasma” value ([4]; 2.5% C-activated plasma) was “not”, the “U937-C5aR chemotaxis to C-activated serum” value ([4]; 2.5% C-activated serum) was “significantly reduces” and the “U937-C5aR chemotaxis to 1 nM purified C5a (net movement)” value ([4]; treated cells, DBP-independent) was 56+/−4.8 μm/120 min.
“(1-112): truncated version of DBP domain I expressed in E. coli (LERGRDYEKNKVCKEFSHLGKEDFTSLSLVLYSRKFPSGT)” was tested, and the “enhancement of C5a-mediated chemotaxis (net cell movement)” value (“enhancement of C5a-mediated chemotaxis” below) [5] was “lack enhancing activity” and the “enhancement of intracellular Ca2+ flux in response to C5a” value (shortened to “enhancement of intracellular Ca2+ flux”) [6] was “lack enhancing activity”.
“(1-125): truncated version of DBP domain I expressed in E. coli (LERGRDYEKNKVCKEFSHLGKEDFTSLSLVLYSRKFPSGT)” was tested, and the “enhancement of C5a-mediated chemotaxis” value [5] was “lack enhancing activity” and the “enhancement of intracellular Ca2+ flux” value [6] was “lack enhancing activity”.
In the case of “(1-150): truncated version of DBP domain I expressed in E. coli (LERGRDYEKNKVCKEFSHLGKEDFTSLSLVLYSRKFPSGT)”, the “enhancement of C5a-mediated chemotaxis” value [5] is reported as “almost the same level of activity as full-length natural DBP” and the “enhancement of intracellular Ca2+ flux” value [6] is reported as “almost the same level of activity as full-length natural DBP”.
“(1-175): truncated version of DBP domain I expressed in E. coli (LERGRDYEKNKVCKEFSHLGKEDFTSLSLVLYSRKFPSGT)” was tested, and the “enhancement of C5a-mediated chemotaxis” value [5] was “almost the same level of activity as full-length natural DBP” and the “enhancement of intracellular Ca2+ flux” value [6] was “almost the same level of activity as full-length natural DBP”.
For “EAFRKDPKEYAN [peptide 3, DBP residues 130-141]”, the “block of the DBP-enhanced C5a calcium signal” value [7] was “partially block”.
With Vitamin D the “effect on binding of 125I-DBP to neutrophils” value [2] was “does not alter its ability to bind to neutrophils”.
With “domain I & II: truncated reDBP, residues 1-378 (LERGRDYEKNKVCKEFSHLGKEDFTSLSLVLYSRKFPSGT)” the “enhancement of C5a-mediated chemotaxis” value [5] was “significantly enhanced” and the “enhancement of intracellular Ca2+ flux” value [6] was “significantly enhanced”.
For “domain I: truncated reDBP, residues 1-191 (EAFRKDPKEYANQFMWEYST)”, the “enhancement of C5a-mediated chemotaxis” value [5] was “significantly enhanced” and the “enhancement of intracellular Ca2+ flux” value [6] was “significantly enhanced”.
“peptide 5: DBP residues #135-146, printed as SEQ ID NO: 10; residues match the sequence of SEQ ID NO: 9 (NQFMWEYSTNYG)” was tested, and the “block of the DBP-enhanced C5a calcium signal” value [7] was “partially block”.

— patent US7547676B2, “Antagonist peptides to the C5A chemotactic function of vitamin D binding protein” (The Research Foundation of State University of New York, priority 2004, dated 2009)
